In US9980945B2, “Benzoisoxazole-substituted compounds as MGLUR4 allosteric potentiators, compositions, and methods of treating neurological dysfunction” (Vanderbilt University, priority 2015, dated 2018):
pEC50: −log10 of the molar value.

Target: mGluR4 (UniProt Q14833)
Test: mGluR4 potentiation assay (EC50 for potentiation at EC20 agonist; fluorometric plate reader, Ca2+ or thallium dye)
Format: cell-based
Settings: potentiation of mGluR4; species of receptor not given
Method: The disclosed compounds and compositions can be evaluated for their ability to act as a potentiator of metabotropic glutamate receptor activity, in particular mGluR4 activity, by any suitable known methodology known in the art. For example, Chinese Hamster Ovary (CHO) cells transacted with human mGluR4 or HEK cells co-transfected with rat mGluR4 and the G-protein regulated Inwardly Rectifying Potassium channel (GIRK) were plated in clear bottom assay plates for assay in a Hamamatsu FDSS Fluorometric Plate Reader. The cells were loaded with either a Ca2+-sensitive fluorescent dye or the thallium responsive dye and the plates were washed and placed into a suitable kinetic plate reader. For human mGluR4 assays, a fluorescence baseline was established for 3-5 seconds, the disclosed compounds were then added to the cells, and the response in cells was measured. Approximately two and a half minutes later, a concentration of mGluR4 orthosteric agonist (e.g. glutamate or L-AP4) eliciting approximately 20% (EC20) of the maximal agonist response was added to the cells, and the response was measured. Two minutes later, a concentration of mGluR4 agonist (e.g. glutamate or L-AP4) eliciting 80% (EC80) of the maximal agonist response was added to the cells, and the response was measured. For rat mGluR4/GIRK experiments, a baseline was established for approximately five seconds, disclosed compounds were added, and either an EC20 or EC80 concentration of agonist was added approximately two and one half minutes later. Potentiation of the agonist response of mGluR4 by the disclosed compounds was observed as an increase in response to the EC20 concentration of agonist in the presence of compound compared to the response to agonist in the absence of compound. Similarly, antagonism of the agonist response of mGluR4 by the disclosed compounds was observed as a decrease in response to the EC80 concentration of agonist in the presence of compound compared to the response to agonist in the absence of compound.
The above described assay operated in two modes. In the first mode, a range of concentrations of the disclosed compounds are added to cells, followed by a single fixed concentration of agonist. If the compound acts as a potentiator, an EC50 so value for potentiation and a maximum extent of potentiation by the compound at this concentration of agonist is determined by non-linear curve fitting. If the compound acts as a noncompetitive antagonist, an IC50 value is determined by non-linear curve fitting. In the second mode, several fixed concentrations of the disclosed compounds are added to various wells on a plate, followed by a range in concentrations of agonist for each concentration of disclosed compound. The EC50 values for the agonist at each concentration of compound are determined by non-linear curve fitting. A decrease in the EC50 value of the agonist with increasing concentrations of the sample compound (a leftward shift of the agonist concentration-response curve) is an indication of the degree of mGluR4 potentiation at a given concentration of the sample compound. A decrease in the maximal response of the agonist with increasing concentrations of the sample compounds, with or without a rightward shift in agonist potency, is an indication of the degree of noncompetitive antagonism at mGluR4. The second mode also indicates whether the sample compounds also affect the maximum response to mGluR4 to agonists.

| Structure (SMILES) | pEC50 |
| --- | --- |
| Cc1noc2cc(Nc3n[nH]c4cccnc34)ccc12 [Example 1, 3-methyl-N-(1H-pyrazolo[4,3-b]pyridin-3-yl)benzo[d]isoxazol-6-amine] | 5.73 |
| c1cnc2c(Nc3ccc4c(C5CCCC5)noc4c3)n[nH]c2c1 [Example 2, 3-cyclopentyl-N-(1H-pyrazolo[4,3-b]pyridin-3-yl)benzo[d]isoxazol-6-amine] | 6.28 |
| c1cnc2c(Nc3ccc4c(C5CCC5)noc4c3)n[nH]c2c1 [Example 3, 3-cyclobutyl-N-(1H-pyrazolo[4,3-b]pyridin-3-yl)benzo[d]isoxazol-6-amine] | 6.05 |
| c1cnc2c(Nc3ccc4c(C5CCC5)noc4c3)n[nH]c2n1 [Example 4, 3-cyclobutyl-N-(1H-pyrazolo[3,4-b]pyrazin-3-yl)benzo[d]isoxazol-6-amine] | 6.17 |
| c1cnc2[nH]nc(Nc3ccc4c(C5CCCC5)noc4c3)c2c1 [Example 5, 3-cyclopentyl-N-(1H-pyrazolo[3,4-b]pyridin-3-yl)benzo[d]isoxazol-6-amine] | 5.62 |
| ClC1(c2noc3cc(Nc4n[nH]c5cccnc45)ccc23)CCC1 [Example 6, 3-(1-chlorocyclobutyl)-N-(1H-pyrazolo[4,3-b]pyridin-3-yl)benzo[d]isoxazol-6-amine] | < 5.00 |
| c1cnc2c(Nc3ccc4c(C5CCCC5)noc4c3)n[nH]c2n1 [Example 7, 3-cydopentyl-N-(1H-pyrazolo[3,4-b]pyrazin-3-yl)benzo[d]isoxazol-6-amine] | 6.28 |
| ClC1(c2noc3cc(Nc4n[nH]c5nccnc45)ccc23)CCC1 [Example 8, 3-(1-chlorocyclobutyl)-N-(1H-pyrazolo[3,4-b]pyrazin-3-yl)benzo[d]isoxazol-6-amine] | 6.73 |
| CC(C)Cc1noc2cc(Nc3n[nH]c4ncccc34)ccc12 [Example 9, 3-isobutyl-N-(1H-pyrazolo[3,4-b]pyridin-3-yl)benzo[d]isoxazol-6-amine] | 5.32 |
| CC(C)Cc1noc2cc(Nc3n[nH]c4ccccc34)ccc12 [Example 10, N-(1H-indazol-3-yl)-3-isobutylbenzo[d]isoxazol-6-amine] | < 5.00 |
| CC(C)(C)Cc1noc2cc(Nc3n[nH]c4cccnc34)ccc12 [Example 11, 3-neopentyl-N-(1H-pyrazolo[4,3-b]pyridin-3-yl)benzo[d]isoxazol-6-amine] | 6.28 |
| CC(C)Cc1noc2cc(Nc3n[nH]c4cccnc34)ccc12 [Example 12, 3-isobutyl-N-(1H-pyrazolo[4,3-b]pyridin-3-yl)benzo[d]isoxazol-6-amine] | 6.08 |
| CC(C)Cc1noc2cc(Nc3n[nH]c4nccnc34)ccc12 [Example 13, 3-isobutyl-N-(1H-pyrazolo[3,4-b]pyrazin-3-yl)benzo[d]isoxazol-6-amine] | 6.07 |
| CC(C)(C)Cc1noc2cc(Nc3n[nH]c4nccnc34)ccc12 [Example 14, 3-neopentyl-N-(1H-pyrazolo[3,4-b]pyrazin-3-yl)benzo[d]isoxazol-6-amine] | 6.21 |
| CCc1noc2cc(Nc3n[nH]c4ncccc34)ccc12 [Example 15, 3-ethyl-N-(1H-pyrazolo[3,4-b]pyridin-3-yl)benzo[d]isoxazol-6-amine] | 5.68 |
| CCc1noc2cc(Nc3n[nH]c4cccnc34)ccc12 [Example 16, 3-ethyl-N-(1H-pyrazolo[4,3-b]pyridin-3-yl)benzo[d]isoxazol-6-amine] | 5.89 |
| CC(C)(C)Cc1noc2cc(Nc3n[nH]c4ccccc34)ccc12 [Example 17, N-(1H-indazol-3-yl)-3-neopentylbenzo[d]isoxazol-6-amine] | < 5.00 |
| CCc1noc2cc(Nc3n[nH]c4ccccc34)ccc12 [Example 18, 3-ethyl-N-(1H-imdazol-3-yl)benzo[d]isoxazol-6-amine] | 5.71 |
| CCc1noc2cc(Nc3n[nH]c4nccnc34)ccc12 [Example 19, 3-ethyl-N-(1H-pyrazolo[3,4-b]pyrazin-3-yl)benzo[d]isoxazol-6-amine] | 5.88 |

| Structure (SMILES) | pEC50 |
| --- | --- |
| CC(C)(C)Cc1noc2cc(Nc3n[nH]c4ncccc34)ccc12 [Example 20, 3-neopentyl-N-(1H-pyrazolo[3,4-b]pyridin-3-yl)benzo[d]isoxazol-6-amine] | 5.51 |
| c1cc2oncc2cc1Nc1n[nH]c2c1CCCC2 [Example 21, N-(4,5,6,7-tetrahydro-1H-indazol-3-yl)benzo[d]isoxazol-5-amine] | < 5.00 |
| Cc1noc2ccc(Nc3n[nH]c4cccnc34)cc12 [Example 22, 3-methyl-N-(1H-pyrazolo[4,3-b]pyridin-3-yl)benzo[d]isoxazol-5-amine] | 7.12 |
| Cc1noc2ccc(Nc3n[nH]c4nccnc34)cc12 [Example 23, 3-methyl-N-(1H-pyrazolo[3,4-b]pyrazin-3-yl)benzo[d]isoxazol-5-amine] | 6.91 |
| Cc1noc2ccc(Nc3n[nH]c4ncccc34)cc12 [Example 24, 3-methyl-N-(1H-pyrazolo[3,4-b]pyridin-3-yl)benzo[d]isoxazol-5-amine] | 6.53 |
| CCc1noc2ccc(Nc3n[nH]c4cccnc34)cc12 [Example 25, 3-ethyl-N-(1H-pyrazolo[4,3-b]pyridin-3-yl)benzo[d]isoxazol-5-amine] | < 5.00 |
| c1cnc2c(Nc3ccc4c(OC5CCOCC5)noc4c3)n[nH]c2c1 [Example 26, N-(1H-pyrazolo[4,3-b]pyridin-3-yl)-3-((tetrahydro-2H-pyran-4-yl)oxy)benzo[d]isoxazole-6-amine] | 5.92 |
| c1cnc2c(Nc3ccc4c(OCC5CCCCO5)noc4c3)n[nH]c2c1 (stereo not shown) [Example 27, N-(1H-pyrazolo[4,3-b]pyridin-3-yl)-3-((tetrahydro-2H-pyran-2-yl)methoxy)benzo[d]isoxazole-6-amine] | 5.89 |
| CC1CN(c2noc3cc(Nc4n[nH]c5cccnc45)ccc23)CC(C)O1 (stereo not shown) [Example 28, 3-(2,6-dimethylmorpholino)-N-(1H-pyrazolo[4,3-b]pyridin-3-yl)benzo[d]isoxazol-6-amine] | 5.73 |
| O=C(NC1CC(F)(F)C1)c1noc2cc(Nc3n[nH]c4cccnc34)ccc12 [Example 29, 6-((1H-pyrazolo[4,3-b]pyridin-3-yl)amino)-N-(3,3-difluorocyclobutyl)benzo[d]isoxazole-3-carboxamide] | 6.60 |
| O=C(c1noc2cc(Nc3n[nH]c4cccnc34)ccc12)N1CCC(F)(F)C1 [Example 30, (6-((1H-pyrazolo[4,3-b]pyridin-3-yl)amino)benzo[d]isoxazol-3-yl)(3,3-difluoropyrrolidin-1-yl)methanone] | < 5.00 |
| CC(c1ccc2c(cnn2C)c1)c1noc2cc(Nc3n[nH]c4cccnc34)ccc12 (stereo not shown) [Example 31, 3-(1-(1-methyl-1H-indazol-5-yl)ethyl)-N-(1H-pyrazolo[4,3-b]pyridin-3-yl)benzo[d]isoxazol-6-amine] | 6.19 |
| COc1ccc(Cc2noc3cc(Nc4n[nH]c5cccnc45)ccc23)cn1 [Example 32, 3-((6-methoxypyridin-3-yl)methyl)-N-(1H-pyrazolo[4,3-b]pyridin-3-yl)benzo[d]isoxazol-6-amine] | 7.02 |
| c1cnc2c(Nc3ccc4c(Cc5ccc6[nH]ncc6c5)noc4c3)n[nH]c2c1 [Example 33, 3-((1H-indazol-5-yl)methyl)-N-(1H-pyrazolo[4,3-b]pyridin-3-yl)benzo[d]isoxazol-6-amine] | 7.36 |
| CC1(COc2noc3cc(Nc4n[nH]c5cccnc45)ccc23)COC1 [Example 41, 3-[(3-methyloxetan-3-yl)methoxy]-N-(1H-pyrazolo[4,3-b]pyridin-3-yl)-1,2-benzoxazol-6-amine] | 5.55 |
| O=C(NC1CCC1)c1noc2cc(Nc3n[nH]c4cccnc34)ccc12 [Example 53, N-cyclobutyl-6-(1H-pyrazolo[4,3-b]pyridin-3-ylamino)-1,2-benzoxazole-3-carboxamide] | 6.17 |
| O=C(NC1CC(F)C1)c1noc2cc(Nc3n[nH]c4cccnc34)ccc12 (stereo not shown) [Example 54, N-(3-fluorocyclobutyl)-6-(1H-pyrazolo[4,3-b]pyridin-3-ylamino)-1,2-benzoxazol-3-carboxamide] | 6.12 |
| CC(C)(C)CNCc1noc2cc(Nc3n[nH]c4cccnc34)ccc12 [Example 77, 3-[(2,2-dimethylpropylamino)methyl]-N-(1H-pyrazolo[4,3-b]pyridin-3-yl)-1,2-benzoxazol-6-amine] | 6.27 |
